Assay results as given in patent publication US7612087B2, “Heterocyclic compounds as inhibitors of beta-lactamases” (Novexel, priority 2002, dated 2009).
Where a name gives a salt, the structure may show the parent alone.

Key:
[1] = biological target: T1, β-lactamase TEM1 (Escherichia coli, UniProt P62593); assay: Inhibition of isolated β-lactamase Tem-1 (Nitrocefin hydrolysis); assay type: biochemical, E.coli 250HT21; details: 100 μM Nitrocefin, 50 mM sodium phosphate buffer pH7.0, 37° C.
T1 construct: The β-lactamases are isolated from bacterial strains which are resistant to penicillins and cephalosporins; endogenous in cells; host or cells: E. coli 250HT21 (natural producer; French-press lysate, 100,000 g supernatant)
T1 sequence (P62593 24-286 limits assumed): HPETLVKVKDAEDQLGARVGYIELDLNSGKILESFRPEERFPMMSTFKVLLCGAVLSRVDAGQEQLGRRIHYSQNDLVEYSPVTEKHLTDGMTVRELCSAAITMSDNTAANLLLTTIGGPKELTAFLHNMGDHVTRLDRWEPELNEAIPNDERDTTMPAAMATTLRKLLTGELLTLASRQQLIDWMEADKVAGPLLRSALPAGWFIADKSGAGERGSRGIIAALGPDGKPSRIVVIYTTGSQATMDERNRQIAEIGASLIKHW
Procedure, shortened: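 TEM-1 from soluble extract of E. coli 250HT21, normalized enzyme, 100 μM Nitrocefin in 50 mM sodium phosphate pH 7.0 at 37 °C. Initial-rate hydrolysis read kinetically at 485 nm, with and without 5 min enzyme–inhibitor preincubation. CI50 from 6 or 8 concentrations in duplicate.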

[2] = tested on: E. coli 250CF1 (Tem3); assay: microbe, parasite or virus in culture; assay type: cell-based; details: compound at 5 mg/l, 24 hours at 37° C.; for MIC of Cefotaxime in combination with the compound: Trial 4, 250CF1 E. coli Tem3; for MIC of Piperacillin in combination with the compound: Trial 4, 250CF1 Tem3
Procedure, shortened: (§1)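 Broth micro-dilution; β-lactamine dilution series + test product fixed at 5 mg/l; inoculate; 24 h, 37° C; MIC = no visible growth, mg/l.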

[3] = tested on: E. coli 250SJ1 (Tem7); assay: MIC, micro-dilution in liquid medium, β-lactamine with product at 5 mg/l; assay type: cell-based; details: compound at 5 mg/l, 24 hours at 37° C.; for MIC of Cefotaxime in combination with the compound: Trial 5, 250SJ1 E. coli Tem7; for MIC of Piperacillin in combination with the compound: Trial 5, 250SJ1 Tem7
Procedure, shortened: as §1

[4] = tested on: E. coli 250HT22 (Tem2); assay: as above; assay type: cell-based; details: compound at 5 mg/l, 24 hours at 37° C.; for MIC of Cefotaxime in combination with the compound: Trial 3, 250HT22 E. coli Tem2; for MIC of Piperacillin in combination with the compound: Trial 3, 250HT22 Tem2
Procedure, shortened: as §1

[5] = tested on: E. cloacae 293HT6 (Class C); assay: as above; assay type: cell-based; details: compound at 5 mg/l, 24 hours at 37° C.; for MIC of Piperacillin in combination with the compound: Trial 9, 293HT6 Class; for MIC of Cefotaxime in combination with the compound: Trial 9, 293HT6 E. cloacae Class C
Procedure, shortened: as §1

[6] = tested on: E. coli 250HT21 (Tem1); assay: as above; assay type: cell-based; details: compound at 5 mg/l, 24 hours at 37° C.; for MIC of Cefotaxime in combination with the compound: Trial 2, 250HT21 E. coli Tem1; for MIC of Piperacillin in combination with the compound: Trial 2, 250HT21 Tem1
Procedure, shortened: as §1

[7] = tested on: E. coli 250HT23 (Class D); assay: as above; assay type: cell-based; details: compound at 5 mg/l, 24 hours at 37° C.; for MIC of Piperacillin in combination with the compound: Trial 8, 250HT23 Class D; for MIC of Cefotaxime in combination with the compound: Trial 8, 250HT23 E. coli Class D
Procedure, shortened: as §1

[8] = tested on: E. coli 250BE1 (SHV4); assay: as above; assay type: cell-based; details: compound at 5 mg/l, 24 hours at 37° C.; for MIC of Cefotaxime in combination with the compound: Trial 7, 250BE1 E. coli SHV4; for MIC of Piperacillin in combination with the compound: Trial 7, 250BE1 SHV4
Procedure, shortened: as §1

[9] = tested on: E. coli 250HT26 (SHV1); assay: as above; assay type: cell-based; details: compound at 5 mg/l, 24 hours at 37° C.; for MIC of Cefotaxime in combination with the compound: Trial 6, 250HT26 E. coli SHV1; for MIC of Piperacillin in combination with the compound: Trial 6, 250HT26 SHV1
Procedure, shortened: as §1

[10] = tested on: P. aeruginosa 391HT7 (PSE); assay: as above; assay type: cell-based; details: compound at 5 mg/l, 24 hours at 37° C.; for MIC of Cefotaxime in combination with the compound: Trial 11, 391HT7 P. aeruginosa PSE; for MIC of Piperacillin in combination with the compound: Trial 11, 391HT7 PSE
Procedure, shortened: as §1

[11] = tested on: P. aeruginosa 391HT8 (PSE); assay: as above; assay type: cell-based; details: compound at 5 mg/l, 24 hours at 37° C.; for MIC of Cefotaxime in combination with the compound: Trial 12, 391HT8 P. aeruginosa PSE; for MIC of Piperacillin in combination with the compound: Trial 12, 391HT8 PSE
Procedure, shortened: as §1

[12] = tested on: S. aureus 011GO66 (PeniR); assay: as above; assay type: cell-based; details: compound at 5 mg/l, 24 hours at 37° C.; for MIC of Cefotaxime in combination with the compound: Trial 1, 011GO66 S. aureus PeniR; for MIC of Piperacillin in combination with the compound: Trial 1, 011GO66 peniR
Procedure, shortened: as §1

[13] = tested on: Serratia 301HT6; assay: as above; assay type: cell-based; details: compound at 5 mg/l; Trial 10, 301HT6 Serratia; 24 hours at 37° C.
Procedure, shortened: as §1

[14] = biological target: T2, β-lactamase P99 (Enterobacter cloacae, UniProt P05364); assay: biochemical
T2 construct: The β-lactamases are isolated from bacterial strains which are resistant to penicillins and cephalosporins; endogenous in cells; host or cells: Enterobacter cloacae 293HT6 (natural producer; French-press lysate, 100,000 g supernatant)
T2 sequence (P05364 21-381): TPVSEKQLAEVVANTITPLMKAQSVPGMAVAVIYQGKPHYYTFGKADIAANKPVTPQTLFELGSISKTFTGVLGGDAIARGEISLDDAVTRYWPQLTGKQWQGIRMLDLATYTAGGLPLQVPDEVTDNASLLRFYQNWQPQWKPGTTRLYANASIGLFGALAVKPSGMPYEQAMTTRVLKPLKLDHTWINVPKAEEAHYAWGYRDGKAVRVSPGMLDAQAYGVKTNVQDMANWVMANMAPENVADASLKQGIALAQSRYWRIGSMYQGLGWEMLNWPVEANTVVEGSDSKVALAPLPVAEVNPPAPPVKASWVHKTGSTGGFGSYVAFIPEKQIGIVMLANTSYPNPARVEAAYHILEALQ
Procedure, shortened: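 P99 β-lactamase, taken from the soluble fraction of an Enterobacter cloacae 293HT6 lysate, was assayed at 37° C. in 50 mM sodium phosphate buffer pH7.0 with 100 μM Nitrocefin as the chromogenic substrate. Hydrolysis was followed kinetically at 485 nm at initial speed, with and without a 5 mn enzyme–inhibitor preincubation. Inhibitors were tested at 6 or 8 concentrations in duplicate, and IC50 was fitted with GraFit.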

Row | Structure (SMILES) | IC50 [1] | MIC of Cefotaxime in combination with the compound [2] | MIC of Piperacillin in combination with the compound [2] | MIC of Cefotaxime in combination with the compound [3] | MIC of Piperacillin in combination with the compound [3] | MIC of Cefotaxime in combination with the compound [4] | MIC of Piperacillin in combination with the compound [4] | MIC of Piperacillin in combination with the compound [5] | MIC of Cefotaxime in combination with the compound [5] | MIC of Cefotaxime in combination with the compound [6] | MIC of Piperacillin in combination with the compound [6] | MIC of Piperacillin in combination with the compound [7] | MIC of Cefotaxime in combination with the compound [7] | MIC of Piperacillin in combination with the compound [8] | MIC of Piperacillin in combination with the compound [9] | MIC of Piperacillin in combination with the compound [10] | MIC of Piperacillin in combination with the compound [11] | MIC of Piperacillin in combination with the compound [12] | MIC of Piperacillin in combination with the compound [13] | IC50 [14] | other results
1 | O=C(NCc1cccnc1)C1CCC2CN1C(=O)N2OS(=O)(=O)O (stereo not drawn) [Example 43, sodium salt of trans-7-oxo-N-(3-pyridinylmethyl)-6-(sulphooxy)-1,6-diazabicyclo[3.2.1]octane-2-carboxamide] | 31 nM | 0.08 µg/mL | 2.5 µg/mL | <=0.04 μg/ml | 5 µg/mL | <=0.04 μg/ml | 1.2 µg/mL | 2.5 µg/mL | 0.08 µg/mL | <=0.04 μg/ml | 1.2 µg/mL | 2.5 µg/mL | <=0.04 μg/ml | 10 µg/mL | 5 µg/mL | >40 µg/mL | >40 µg/mL | 1.2 µg/mL | 0.6 µg/mL | 76 nM | MIC of Cefotaxime in combination with the compound [8]: <=0.04 μg/ml; MIC of Cefotaxime in combination with the compound [9]: <=0.04 μg/ml; MIC of Cefotaxime in combination with the compound [10]: 20 µg/mL; MIC of Cefotaxime in combination with the compound [11]: 20 µg/mL; MIC of Cefotaxime in combination with the compound [12]: 2.5 µg/mL; MIC of Cefotaxime in combination with the compound [13]: <=0.04 μg/ml
2 | NC(=O)C(Cc1ccccc1)NC(=O)C1CCC2CN1C(=O)N2OS(=O)(=O)O (stereo not drawn) [Example 44, sodium salt of trans-N-(1-amino-1-oxo-3-phenyl-2-propyl)-7-oxo-6-(sulphooxy)-1,6-diazabicyclo[3.2.1]octane-2-carboxamide] | 59 nM | 0.3 µg/mL | 40 µg/mL | 0.08 µg/mL | >40 µg/mL | 0.15 µg/mL | >40 µg/mL | >40 µg/mL | >40 µg/mL | <=0.04 μg/ml | 5 µg/mL | 40 µg/mL | <=0.04 μg/ml | >40 µg/mL | >40 µg/mL | >40 µg/mL | >40 µg/mL | 2.5 µg/mL | >40 µg/mL | 100 nM | MIC of Cefotaxime in combination with the compound [8]: 0.6 µg/mL; MIC of Cefotaxime in combination with the compound [9]: 0.08 µg/mL; MIC of Cefotaxime in combination with the compound [10]: >40 µg/mL; MIC of Cefotaxime in combination with the compound [11]: >40 µg/mL; MIC of Cefotaxime in combination with the compound [12]: 2.5 µg/mL; MIC of Cefotaxime in combination with the compound [13]: 10 µg/mL
3 | NC(=O)CNC(=O)C1CCC2CN1C(=O)N2OS(=O)(=O)O (stereo not drawn) [Example 45, sodium salt of trans-N-(2-amino-2-oxoethyl)-7-oxo-6-(sulphooxy)-1,6-diazabicyclo[3.2.1]octane-2-carboxamide] | 12 nM | – | 2.5 µg/mL | – | 2.5 µg/mL | – | 2.5 µg/mL | 1.2 µg/mL | – | – | 1.2 µg/mL | 10 µg/mL | – | 5 µg/mL | 2.5 µg/mL | >40 µg/mL | >40 µg/mL | 1.2 µg/mL | 0.6 µg/mL | 60 nM | –
